Experimental data from patent US20130281524A1, “NOVEL TREATMENTS” (priority 2008, published 2013).
Entries after “also recorded” stand apart in the source; their conditions may differ.

Experiments:
[1] = test system: gap junction communication between neurons and satellite glial cells in the trigeminal ganglion; test: Dye coupling studies (True Blue) of neuron-satellite glia gap junction signalling in trigeminal ganglion after TNF-α and capsaicin; assay type: in vivo, Sprague Dawley rats; conditions: 10 mg/kg i.p. pre-treatment prior to TNF-α then capsaicin; V1 and V2 regions of ganglia
Description: (§1) Sprague Dawley rats injected with True Blue were used to localize neuronal cell bodies in the ganglion and study neuron-glia signalling via gap junctions in the trigeminal ganglion. Dye coupling studies were conducted under basal conditions and in response to tumour necrosis factor-α injection into the whisker pad and/or capsaicin injection into the eyebrow. Changes in connexin 26 and active p38 levels were determined by immunohistochemistry.
(§2) In addition, the effect of tonabersat prior to chemical stimulation on gap junction activity and expression of connexins and active p38 was investigated.
Young male rats (200-225 g) were brought to the lab and kept in a quiet environment for about 30 minutes. Rats were anesthetized by an intraperitoneal (i.p.) injection of 0.3 ml of ketamine and xylazine solution (800 mg and 60 mg in 10 ml, respectively; Sigma, St. Louis, Mo.). […] Initially, rats were injected with a fluorescent dye, True Blue (25 μl, 2 mg/ml in dimethyl sulfoxide, DMSO; Invitrogen, Eugene, Oreg.) in the whisker pad or eyebrow regions to retrogradely label neuronal cell bodies within the V1 and V2 regions of the trigeminal ganglion. Bilateral injections were performed using a 50 μL Hamilton syringe (Hamilton Company, Reno, Nev.) and a 261/2 G needle (Becton Dickinson, FranklinLakes, N.J.). […]

[2] = test system: active p38 MAP kinase; test: Immunohistochemistry of active p38 in trigeminal ganglia after TNF-α and capsaicin; assay type: in vivo, Sprague Dawley rats; conditions: 10 mg/kg i.p. pre-treatment, neurons and satellite glial cells in V1 and V2 regions, compared to TNF-α and capsaicin treated animals
Description: as §1, §2
Ganglia were collected from untreated animals or animals injected with TNF-α, capsaicin, or TNF-α and capsaicin as described above. Sections were fixed using 4% paraformaldehyde for 60 minutes, permeabilized with 0.3% Triton-X100 for 60 minutes, and then incubated in 5% donkey serum for another 60 minutes. Sections were then incubated overnight at 4° C. with primary antibodies against connexin 26 (1:500 in PBS; Chemicon, Temecula, Calif.) or active p38 MAP kinase (1:200; Cell Signaling Technology, Danvers, Mass.). Immunoreactive proteins were visualized following incubation with Rhodamine Red Xconjugated donkey anti-rabbit antibodies (diluted 1:100 in PBS, Jackson Immuno-Research Laboratories, West Grove, Pa.) for 1 hour at room temperature and then mounted in Vectashield medium (H-1200) containing 4′,6 diamidino-2-phenylindole (DAPI) to allow for identification of neuronal and glial cell nuclei. As a control, some sections were incubated for 1 hour at room temperature with only the Rhodamine Red Xconjugated anti-rabbit antibodies. Images were collected as described above.
To determine whether TNF-α sensitization of capsaicin-responsive neurons could lead to increased expression of p38, animals were injected with TNF-α, capsaicin, or both agents and ganglion sections stained for the active phosphorylated form of p38. […]

[3] = test system: connexin 26; test: Immunohistochemistry of connexin 26 in trigeminal ganglia after TNF-α and capsaicin; assay type: in vivo, Sprague Dawley rats; conditions: 10 mg/kg i.p. pre-treatment
Description: as §1, §2
Ganglia were collected from untreated animals or animals injected with TNF-α, capsaicin, or TNF-α and capsaicin as described above. Sections were fixed using 4% paraformaldehyde for 60 minutes, permeabilized with 0.3% Triton-X100 for 60 minutes, and then incubated in 5% donkey serum for another 60 minutes. Sections were then incubated overnight at 4° C. with primary antibodies against connexin 26 (1:500 in PBS; Chemicon, Temecula, Calif.) or active p38 MAP kinase (1:200; Cell Signaling Technology, Danvers, Mass.). […]

[4] = test system: trigeminal nerve; conditions: Parsons et al., Brit. J. Pharmacol. 2001, cited from earlier work

For `CC(=O)c1ccc2c(c1)[C@H](NC(=O)c1ccc(F)c(Cl)c1)[C@H](O)C(C)(C)O2` [tonabersat, cis-6-acetyl-4-(S)-(3-chloro-4-fluorobenzoylamino)-3,4-dihydro-2,2-dimethyl-2H-1-benzopyran-3-(S)-ol], the “stimulated dye movement between neurons and satellite glial cells (gap junction communication)” value [1] was “greatly reduced; also recorded: decrease”, the “active p38 levels” value [2] was “greatly decreased; also recorded: blocked” and the “amount of nuclear staining of active p38” value [2] was “greatly decreased”. The “active p38 levels” value ([2]; listed as Tonabersat) was “lowered p38 levels to those observed in ganglia obtained from untreated control animals”, the “level of connexin 26 staining” value ([3]; V1 and V2 regions, compared to animals treated with TNF-α and capsaicin) was “greatly decreased; also recorded: decrease” and the “number of plaques observed between neurons and satellite glial cells” value ([3]; ganglia from TNF-α and capsaicin treated animals, higher magnification) was “much lower”. The trigeminal nerve activation ([4]; 10 mg/kg, animal models) was “block” and the trigeminal parasympathetic reflexes [4] was “blockade”.
